Where no end group is shown, it is not given here.
What was measured:
[1] = system: AtPRP3, AtHRGP2, CPD and DWF4 genes; test: Expression of hormone-responsive genes (RT-PCR, qRT-PCR); format: in vivo, Arabidopsis thaliana; conditions: bak1-1, bak1-3, bak1-4 mutants, 1 μM, 1 h
Protocol: Arabidopsis plants were grown for 10 days in vertical plates and then treated in liquid medium containing 1 μM AtRALF1 for 1 h at room temperature. Control plants were incubated under identical conditions in a peptide-free medium. The total RNA was isolated from the roots of Arabidopsis plants using TRIzol reagent according to the manufacturer’s instructions (Life Technologies). The cDNA was synthesized using the ImProm-II Reverse Transcription System (Promega) and 1 μg of RNA. An aliquot of cDNA (1.5 μl) was used as the template in the PCR reaction, which was performed for 29 cycles, unless indicated otherwise, using gene-specific primers (S1 Table). The glyceraldehyde 3-phosphate dehydrogenase (GAPDH) gene was used as an internal control. All experiments were repeated at least three times with independent biological replicates. The data shown are from one representative experiment.
The qRT-PCR analysis was performed using 10-fold-diluted cDNA, Maxima SYBR Green Rox/qPCR Master Mix (Thermo Scientific) and a StepOne Real-Time PCR System (Applied Biosystems). The glyceraldehyde 3-phosphate dehydrogenase (GAPDH) gene was used as an internal control. […] The threshold cycle (CT) was determined by the instrument, and the ΔΔCT method was used to calculate the fold change in each gene. […] Three replicates were analyzed for each biological sample, and two biological samples were analyzed. […]

BAK1 = BAK1 phosphorylation assay, anti-phosphoserine; format: in vivo, Arabidopsis thaliana; conditions: pBAK1:BAK1-6xHA roots; 1, 2 and 10 μM, 20 min
Protocol: Transgenic plants pBAK1:BAK1-6xHA were grown in vertical plates for 10–15 days. The plants were treated with 0.1 μM BL, 2 μM RALF1(9–49), 1 μM, 2 μM or 10 μM AtRALF1 for 20 min. The roots were isolated, and the microsomal fractions were obtained as described above. The microsomal fractions were incubated with anti-HA beads (EZview Red Anti-HA Affinity Gel, Sigma) for 2 h at 4 °C to immunoprecipitate the BAK1 protein. The unbound materials were removed by washing 3 times. Proteins were separated by SDS/PAGE and further analyzed by protein blotting using anti-HA (Thermo Scientific), or anti-phosphothreonine (Novus Biologicals), or anti-phosphoserine (Novus Biologicals) antibodies.

[2] = system: intact Arabidopsis seedlings; test: Binding assay with acridinium-labeled AtRALF34, intact seedlings; parameters: species or system Arabidopsis thaliana; conditions: 10-fold excess of unlabeled AtRALF1
Protocol: Arabidopsis seedlings were grown for 5 days on vertical plates. Roots were homogenized in extraction buffer [300 mM sucrose, 100 mM Tris-HCl pH 7.5, 25 mM EDTA, 25 mM NaF, 1 mM Na2MoO4, 1 mM PMSF and protease inhibitor cocktail (Roche), adjusted to pH 6.2], and the homogenate was spun at 2,000 x g for 10 min at 4 °C. The supernatant was recovered and centrifuged at 100,000 x g for 50 min at 4 °C to precipitate the microsomal pellet. The pellet was resuspended in the extraction buffer plus 0.5% Triton-X. Seedlings or microsomal fractions were placed in 200 μl of medium and incubated with 7 nM acridinium-labeled peptide (acriAtRALF1 or acriAtRALF34) and different concentrations of AtRALF1, AtRALF34 or RALF1(9–49) for 15–20 min at 4 °C on a shaker. After incubation, the seedlings or microsomal fractions were washed three times with the same medium. Unless indicated otherwise, five entire seedlings and approximately 10 ng of microsomal fractions were used per treatment. The resulting luminescence emissions from the acridinium were measured using a microplate reader (Biotec ELx 800) at 2 s after injecting 50 μl of a solution containing 20 mM H2O2 in 0.1 M NaOH. These experiments were repeated at least three times using independent biological replicates. Duplicates were used for each concentration or treatment. The data shown are from one representative experiment. […]

For “AtRALF1: root-specific RALF isoform in Arabidopsis; recombinant peptide hormone produced in E. coli (ATTKYISYQSLKRNSVPCSRRGASYYNCQNGAQANPYSRGCSKIARCRS; ends and bridges not checked; cysteine pairing not given here)”, the “up-regulation of AtRALF1-inducible genes” value [1] was “None of the AtRALF1-inducible genes were up-regulated”, the BAK1 serine phosphorylation (BAK1) was “no changes were detected” and the “effect of unlabeled AtRALF1 on total acriAtRALF34 binding” value [2] was “did not alter the total binding”.

Reference: paper PMC5656322, “BAK1 is involved in AtRALF1-induced inhibition of root cell expansion” (PLoS Genetics, 2017)
